Test results: ChEMBL document CHEMBL5678818, “Discovery of potent SOS1 inhibitors that block RAS activation via disruption of the RAS-SOS1 interaction” (Proc Natl Acad Sci U S A, 2019)

Key:
[1] = target: T1, Serine/threonine-protein kinase Nek9 (Homo sapiens) (UniProt Q8TD19); test: Inhibition of NEK9 (unknown origin) assessed as residual activity at 100 nM by KINOMEscan analysis relative to control
T1 sequence (whole entry): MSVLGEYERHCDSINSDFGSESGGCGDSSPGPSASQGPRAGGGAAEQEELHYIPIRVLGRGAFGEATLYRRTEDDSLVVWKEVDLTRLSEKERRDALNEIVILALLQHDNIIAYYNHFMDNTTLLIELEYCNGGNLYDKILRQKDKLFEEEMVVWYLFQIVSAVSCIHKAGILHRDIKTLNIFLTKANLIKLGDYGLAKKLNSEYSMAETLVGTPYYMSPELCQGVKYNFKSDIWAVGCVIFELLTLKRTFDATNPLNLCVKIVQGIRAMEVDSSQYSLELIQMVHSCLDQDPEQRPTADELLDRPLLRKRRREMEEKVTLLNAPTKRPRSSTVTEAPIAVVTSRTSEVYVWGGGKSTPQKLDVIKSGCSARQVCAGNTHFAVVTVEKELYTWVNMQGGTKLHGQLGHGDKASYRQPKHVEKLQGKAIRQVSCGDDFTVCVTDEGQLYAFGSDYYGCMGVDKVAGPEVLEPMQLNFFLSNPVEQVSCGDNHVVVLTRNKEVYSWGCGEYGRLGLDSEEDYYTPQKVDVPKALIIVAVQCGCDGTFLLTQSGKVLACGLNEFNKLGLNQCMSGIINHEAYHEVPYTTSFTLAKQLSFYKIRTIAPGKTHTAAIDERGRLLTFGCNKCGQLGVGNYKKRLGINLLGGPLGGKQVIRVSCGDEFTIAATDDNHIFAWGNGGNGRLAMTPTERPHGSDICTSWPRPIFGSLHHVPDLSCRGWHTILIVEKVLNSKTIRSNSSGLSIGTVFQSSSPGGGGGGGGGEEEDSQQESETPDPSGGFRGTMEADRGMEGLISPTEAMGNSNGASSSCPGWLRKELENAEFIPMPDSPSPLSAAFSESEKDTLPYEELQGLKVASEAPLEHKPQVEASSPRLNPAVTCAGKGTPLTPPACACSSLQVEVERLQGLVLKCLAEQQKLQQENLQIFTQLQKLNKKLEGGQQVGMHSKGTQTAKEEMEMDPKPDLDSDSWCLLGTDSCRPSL

[2] = target: Serine/threonine-protein kinase WNK3 (Homo sapiens) (UniProt Q9BYP7); test: Inhibition of WNK3 (unknown origin) assessed as residual activity at 100 nM by KINOMEscan analysis relative to control
Sequence of Serine/threonine-protein kinase WNK3 (Homo sapiens) (Q9BYP7 whole entry): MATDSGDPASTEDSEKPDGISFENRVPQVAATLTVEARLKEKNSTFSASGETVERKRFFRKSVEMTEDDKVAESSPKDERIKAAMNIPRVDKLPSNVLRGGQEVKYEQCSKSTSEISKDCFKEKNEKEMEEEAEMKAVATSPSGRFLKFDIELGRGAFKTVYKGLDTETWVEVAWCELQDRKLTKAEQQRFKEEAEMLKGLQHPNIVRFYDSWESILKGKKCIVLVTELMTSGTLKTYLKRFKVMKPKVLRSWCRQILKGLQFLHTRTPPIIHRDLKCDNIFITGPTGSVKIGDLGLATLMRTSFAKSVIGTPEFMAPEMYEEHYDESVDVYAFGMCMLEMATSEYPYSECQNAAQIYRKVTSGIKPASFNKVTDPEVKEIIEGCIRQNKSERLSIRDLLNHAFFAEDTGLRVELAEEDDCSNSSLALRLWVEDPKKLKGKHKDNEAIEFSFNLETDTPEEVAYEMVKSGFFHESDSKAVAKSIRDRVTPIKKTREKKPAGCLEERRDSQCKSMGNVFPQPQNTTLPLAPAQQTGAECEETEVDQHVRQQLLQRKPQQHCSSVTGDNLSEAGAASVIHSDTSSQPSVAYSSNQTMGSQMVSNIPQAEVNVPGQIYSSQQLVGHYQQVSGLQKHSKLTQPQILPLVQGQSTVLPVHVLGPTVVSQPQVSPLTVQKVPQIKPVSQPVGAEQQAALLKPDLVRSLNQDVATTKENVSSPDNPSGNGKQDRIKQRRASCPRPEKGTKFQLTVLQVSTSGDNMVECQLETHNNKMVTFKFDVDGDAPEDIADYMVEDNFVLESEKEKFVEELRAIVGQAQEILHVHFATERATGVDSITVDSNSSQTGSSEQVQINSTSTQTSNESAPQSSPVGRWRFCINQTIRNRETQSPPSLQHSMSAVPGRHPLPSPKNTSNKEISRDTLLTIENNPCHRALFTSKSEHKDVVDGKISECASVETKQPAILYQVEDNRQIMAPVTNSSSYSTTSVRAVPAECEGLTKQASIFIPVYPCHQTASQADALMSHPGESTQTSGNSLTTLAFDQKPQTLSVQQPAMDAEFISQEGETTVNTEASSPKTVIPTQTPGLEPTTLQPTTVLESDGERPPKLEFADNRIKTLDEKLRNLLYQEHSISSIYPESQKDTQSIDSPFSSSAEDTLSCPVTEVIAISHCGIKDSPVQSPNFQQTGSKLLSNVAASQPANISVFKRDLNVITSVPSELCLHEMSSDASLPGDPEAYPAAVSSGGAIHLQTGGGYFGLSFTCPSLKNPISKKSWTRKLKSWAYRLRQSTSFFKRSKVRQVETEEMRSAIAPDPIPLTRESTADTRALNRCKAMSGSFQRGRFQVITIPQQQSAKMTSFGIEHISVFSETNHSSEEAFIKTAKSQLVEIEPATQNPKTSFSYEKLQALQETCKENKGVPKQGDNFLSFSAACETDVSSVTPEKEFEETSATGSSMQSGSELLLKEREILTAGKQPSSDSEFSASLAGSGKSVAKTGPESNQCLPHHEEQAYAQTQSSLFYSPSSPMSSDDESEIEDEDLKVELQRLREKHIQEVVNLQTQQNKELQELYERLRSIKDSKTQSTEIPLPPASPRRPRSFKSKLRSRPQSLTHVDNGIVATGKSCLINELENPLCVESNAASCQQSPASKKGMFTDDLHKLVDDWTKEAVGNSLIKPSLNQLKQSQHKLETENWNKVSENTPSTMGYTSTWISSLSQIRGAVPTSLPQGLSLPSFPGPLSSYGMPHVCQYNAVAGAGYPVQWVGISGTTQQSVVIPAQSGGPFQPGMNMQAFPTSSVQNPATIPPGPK

[3] = target: Cyclin-dependent kinase 8 (Homo sapiens) (UniProt P49336); test: Inhibition of CDK8 (unknown origin) assessed as residual activity at 100 nM by KINOMEscan analysis relative to control
Sequence of Cyclin-dependent kinase 8 (Homo sapiens) (P49336 whole entry): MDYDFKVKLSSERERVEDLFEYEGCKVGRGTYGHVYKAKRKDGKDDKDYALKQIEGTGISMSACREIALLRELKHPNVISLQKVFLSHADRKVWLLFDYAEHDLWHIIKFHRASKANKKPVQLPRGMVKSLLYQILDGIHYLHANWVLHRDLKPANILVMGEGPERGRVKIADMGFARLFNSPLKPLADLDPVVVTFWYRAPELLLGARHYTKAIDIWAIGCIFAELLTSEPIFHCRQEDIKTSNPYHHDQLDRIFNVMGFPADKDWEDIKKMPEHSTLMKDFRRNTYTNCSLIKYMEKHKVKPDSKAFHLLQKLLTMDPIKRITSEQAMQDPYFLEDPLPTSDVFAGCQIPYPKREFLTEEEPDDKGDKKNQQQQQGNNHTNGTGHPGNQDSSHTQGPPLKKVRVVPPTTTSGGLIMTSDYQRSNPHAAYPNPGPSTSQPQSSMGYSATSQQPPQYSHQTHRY

[4] = test system: Receptor-type tyrosine-protein kinase FLT3 (Homo sapiens), P36888 [D835Y]; test: Inhibition of FLT3 D835Y mutant (unknown origin) assessed as residual activity at 100 nM by KINOMEscan analysis relative to control
[5] = target: T2, Ankyrin repeat and protein kinase domain-containing protein 1 (Homo sapiens) (UniProt Q8NFD2); test: Inhibition of ANKK1 (unknown origin) assessed as residual activity at 100 nM by KINOMEscan analysis relative to control
T2 sequence (whole entry): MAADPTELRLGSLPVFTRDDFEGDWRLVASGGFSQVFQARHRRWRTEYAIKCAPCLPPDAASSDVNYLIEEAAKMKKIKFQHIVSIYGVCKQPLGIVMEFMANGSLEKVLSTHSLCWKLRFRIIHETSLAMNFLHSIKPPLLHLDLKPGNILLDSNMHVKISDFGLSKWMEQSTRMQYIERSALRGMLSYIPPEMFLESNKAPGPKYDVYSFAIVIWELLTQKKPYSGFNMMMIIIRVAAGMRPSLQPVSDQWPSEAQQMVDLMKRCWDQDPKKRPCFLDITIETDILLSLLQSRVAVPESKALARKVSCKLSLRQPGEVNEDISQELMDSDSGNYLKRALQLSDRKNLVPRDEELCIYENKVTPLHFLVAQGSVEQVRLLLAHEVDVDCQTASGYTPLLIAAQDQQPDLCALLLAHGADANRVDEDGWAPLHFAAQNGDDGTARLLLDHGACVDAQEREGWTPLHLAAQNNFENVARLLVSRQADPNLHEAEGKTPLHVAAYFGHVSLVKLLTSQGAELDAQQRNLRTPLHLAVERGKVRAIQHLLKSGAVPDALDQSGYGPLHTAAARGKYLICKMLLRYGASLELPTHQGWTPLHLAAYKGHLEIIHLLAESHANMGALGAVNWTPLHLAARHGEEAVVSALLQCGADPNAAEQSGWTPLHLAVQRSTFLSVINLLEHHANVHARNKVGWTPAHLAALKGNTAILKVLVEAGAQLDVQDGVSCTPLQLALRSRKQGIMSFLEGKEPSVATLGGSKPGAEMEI

[6] = target: Eukaryotic translation initiation factor 2-alpha kinase 1 (Homo sapiens) (UniProt Q9BQI3); test: Inhibition of EIF2AK1 (unknown origin) assessed as residual activity at 100 nM by KINOMEscan analysis relative to control
Sequence of Eukaryotic translation initiation factor 2-alpha kinase 1 (Homo sapiens) (Q9BQI3 whole entry): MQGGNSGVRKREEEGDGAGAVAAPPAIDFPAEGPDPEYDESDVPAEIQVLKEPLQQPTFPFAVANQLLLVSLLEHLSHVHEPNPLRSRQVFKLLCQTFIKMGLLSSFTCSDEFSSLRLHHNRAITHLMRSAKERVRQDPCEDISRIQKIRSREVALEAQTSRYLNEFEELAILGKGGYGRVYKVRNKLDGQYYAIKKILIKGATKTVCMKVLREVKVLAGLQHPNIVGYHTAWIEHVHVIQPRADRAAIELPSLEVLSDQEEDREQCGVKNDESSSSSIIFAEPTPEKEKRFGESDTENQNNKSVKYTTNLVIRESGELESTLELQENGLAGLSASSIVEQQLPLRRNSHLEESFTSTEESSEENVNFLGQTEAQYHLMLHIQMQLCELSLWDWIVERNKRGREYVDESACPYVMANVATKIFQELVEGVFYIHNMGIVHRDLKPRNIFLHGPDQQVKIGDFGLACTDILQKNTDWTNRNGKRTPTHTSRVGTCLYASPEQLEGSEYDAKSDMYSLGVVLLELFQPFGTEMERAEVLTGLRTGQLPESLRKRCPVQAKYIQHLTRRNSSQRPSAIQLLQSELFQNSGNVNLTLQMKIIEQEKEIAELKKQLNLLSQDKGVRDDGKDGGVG

[7] = target: T3, Cyclin-dependent kinase 11A (Homo sapiens) (UniProt Q9UQ88); test: Inhibition of CDC2L2 (unknown origin) assessed as residual activity at 100 nM by KINOMEscan analysis relative to control
T3 sequence (whole entry): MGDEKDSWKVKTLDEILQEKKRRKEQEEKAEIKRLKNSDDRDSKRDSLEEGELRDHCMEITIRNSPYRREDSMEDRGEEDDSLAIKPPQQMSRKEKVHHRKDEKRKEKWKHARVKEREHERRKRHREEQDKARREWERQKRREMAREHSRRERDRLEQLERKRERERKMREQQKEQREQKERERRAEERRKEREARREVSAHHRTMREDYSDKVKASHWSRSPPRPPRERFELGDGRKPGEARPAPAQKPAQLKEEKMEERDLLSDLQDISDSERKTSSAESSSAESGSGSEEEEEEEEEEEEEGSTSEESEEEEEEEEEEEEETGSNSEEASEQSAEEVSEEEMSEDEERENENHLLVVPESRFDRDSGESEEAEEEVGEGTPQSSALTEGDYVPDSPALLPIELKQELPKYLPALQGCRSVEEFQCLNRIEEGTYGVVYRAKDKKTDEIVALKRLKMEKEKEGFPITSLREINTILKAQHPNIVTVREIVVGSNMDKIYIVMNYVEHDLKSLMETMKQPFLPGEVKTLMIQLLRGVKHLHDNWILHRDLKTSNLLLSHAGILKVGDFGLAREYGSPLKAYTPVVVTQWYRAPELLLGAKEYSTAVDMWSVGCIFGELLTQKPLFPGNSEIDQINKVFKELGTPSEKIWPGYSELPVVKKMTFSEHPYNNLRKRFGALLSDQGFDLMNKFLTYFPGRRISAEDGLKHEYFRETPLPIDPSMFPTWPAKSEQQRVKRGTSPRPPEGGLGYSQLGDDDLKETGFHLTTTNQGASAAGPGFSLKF

## COc1cc2ncnc(N[C@H](C)c3cccc4ccccc34)c2cc1OC
[1]
  Activity: 100%
[2]
  Activity: 89%
[3]
  Activity: 91%
[4]
  Activity: 98%
[5]
  Activity: 97%
[6]
  Activity: 67%
[7]
  Activity: 82%
